According to patent publication EP4793641A1, “NOVEL METHOD FOR ANALYZING BIOMOLECULAR INTERACTIONS” (Kyoto University, priority 2023, dated 2025):
Residues, ends and D or L forms follow the SMILES beside them. *: point of attachment. Mob = COc1ccc(C*)cc1

Target: T1, interactions between Talin 1 (TLN1) and integrin subunit beta (ITGB) (Homo sapiens, UniProt Q9Y490)
T1 construct: LgBit or SmBit (N-terminal of the HaloTag); made in house
Test: Flip-flop detection mechanism on DNA origami (LgBit/SmBit luminescence), inhibitor screening
Assay type: biochemical
Conditions: inhibition of binding between TLN1 and ITBG
Source text: Two types of systems, i.e., flip-flop detection mechanism and switch detection mechanism, were constructed by using HaloTag, LgBit, SmBit, TLN1, and ITGB. Each of TLN1 (Uniprot ID: Q9Y490) and ITGB1 (Uniprot ID: P05556) was cloned from the registered genetic information. HaloTAg has three chemically modifiable locations at a ligand recognition site, C-terminus, and N-terminus. In this Example, a single-stranded DNA for attaching to DNA origami was connected to a ligand recognition site of HaloTag, a subunit of an interaction complex was connected to the C-terminus, and LgBit or SmBit was connected to the N-terminus.
The outline of the system is disclosed in Figure 23. When TLN1 and ITBG are in a bound state in this system, LgBit and SmBit are at spatially separated positions from each other, with a HaloTag interposed therebetween. In this regard, if an inhibitor is added, complex formation of TLN1 and ITBG is inhibited. As a result, a LgBit-SmBit complex can be formed, and a luminescence reaction progresses.
As a candidate drug for inhibiting the binding between TLN1 and ITBG, peptide inhibitors consisting of 13 amino acids prepared by modifying amino acids in an intracellular region of ITGB3 have been designed (Shen B. et al., A directional switch of integrin signaling and a new antithrombotic strategy. Nature 503, 131-135 (2013)). IC50 values for the peptides shown in the following table were calculated by using the flip-flop detection mechanism described in Example 11 for optimizing the sequence. In this manner, the effect of a large number of compounds on the interaction with a target protein can be readily analyzed in the system of the present disclosed.

T1 sequence (Q9Y490 whole entry): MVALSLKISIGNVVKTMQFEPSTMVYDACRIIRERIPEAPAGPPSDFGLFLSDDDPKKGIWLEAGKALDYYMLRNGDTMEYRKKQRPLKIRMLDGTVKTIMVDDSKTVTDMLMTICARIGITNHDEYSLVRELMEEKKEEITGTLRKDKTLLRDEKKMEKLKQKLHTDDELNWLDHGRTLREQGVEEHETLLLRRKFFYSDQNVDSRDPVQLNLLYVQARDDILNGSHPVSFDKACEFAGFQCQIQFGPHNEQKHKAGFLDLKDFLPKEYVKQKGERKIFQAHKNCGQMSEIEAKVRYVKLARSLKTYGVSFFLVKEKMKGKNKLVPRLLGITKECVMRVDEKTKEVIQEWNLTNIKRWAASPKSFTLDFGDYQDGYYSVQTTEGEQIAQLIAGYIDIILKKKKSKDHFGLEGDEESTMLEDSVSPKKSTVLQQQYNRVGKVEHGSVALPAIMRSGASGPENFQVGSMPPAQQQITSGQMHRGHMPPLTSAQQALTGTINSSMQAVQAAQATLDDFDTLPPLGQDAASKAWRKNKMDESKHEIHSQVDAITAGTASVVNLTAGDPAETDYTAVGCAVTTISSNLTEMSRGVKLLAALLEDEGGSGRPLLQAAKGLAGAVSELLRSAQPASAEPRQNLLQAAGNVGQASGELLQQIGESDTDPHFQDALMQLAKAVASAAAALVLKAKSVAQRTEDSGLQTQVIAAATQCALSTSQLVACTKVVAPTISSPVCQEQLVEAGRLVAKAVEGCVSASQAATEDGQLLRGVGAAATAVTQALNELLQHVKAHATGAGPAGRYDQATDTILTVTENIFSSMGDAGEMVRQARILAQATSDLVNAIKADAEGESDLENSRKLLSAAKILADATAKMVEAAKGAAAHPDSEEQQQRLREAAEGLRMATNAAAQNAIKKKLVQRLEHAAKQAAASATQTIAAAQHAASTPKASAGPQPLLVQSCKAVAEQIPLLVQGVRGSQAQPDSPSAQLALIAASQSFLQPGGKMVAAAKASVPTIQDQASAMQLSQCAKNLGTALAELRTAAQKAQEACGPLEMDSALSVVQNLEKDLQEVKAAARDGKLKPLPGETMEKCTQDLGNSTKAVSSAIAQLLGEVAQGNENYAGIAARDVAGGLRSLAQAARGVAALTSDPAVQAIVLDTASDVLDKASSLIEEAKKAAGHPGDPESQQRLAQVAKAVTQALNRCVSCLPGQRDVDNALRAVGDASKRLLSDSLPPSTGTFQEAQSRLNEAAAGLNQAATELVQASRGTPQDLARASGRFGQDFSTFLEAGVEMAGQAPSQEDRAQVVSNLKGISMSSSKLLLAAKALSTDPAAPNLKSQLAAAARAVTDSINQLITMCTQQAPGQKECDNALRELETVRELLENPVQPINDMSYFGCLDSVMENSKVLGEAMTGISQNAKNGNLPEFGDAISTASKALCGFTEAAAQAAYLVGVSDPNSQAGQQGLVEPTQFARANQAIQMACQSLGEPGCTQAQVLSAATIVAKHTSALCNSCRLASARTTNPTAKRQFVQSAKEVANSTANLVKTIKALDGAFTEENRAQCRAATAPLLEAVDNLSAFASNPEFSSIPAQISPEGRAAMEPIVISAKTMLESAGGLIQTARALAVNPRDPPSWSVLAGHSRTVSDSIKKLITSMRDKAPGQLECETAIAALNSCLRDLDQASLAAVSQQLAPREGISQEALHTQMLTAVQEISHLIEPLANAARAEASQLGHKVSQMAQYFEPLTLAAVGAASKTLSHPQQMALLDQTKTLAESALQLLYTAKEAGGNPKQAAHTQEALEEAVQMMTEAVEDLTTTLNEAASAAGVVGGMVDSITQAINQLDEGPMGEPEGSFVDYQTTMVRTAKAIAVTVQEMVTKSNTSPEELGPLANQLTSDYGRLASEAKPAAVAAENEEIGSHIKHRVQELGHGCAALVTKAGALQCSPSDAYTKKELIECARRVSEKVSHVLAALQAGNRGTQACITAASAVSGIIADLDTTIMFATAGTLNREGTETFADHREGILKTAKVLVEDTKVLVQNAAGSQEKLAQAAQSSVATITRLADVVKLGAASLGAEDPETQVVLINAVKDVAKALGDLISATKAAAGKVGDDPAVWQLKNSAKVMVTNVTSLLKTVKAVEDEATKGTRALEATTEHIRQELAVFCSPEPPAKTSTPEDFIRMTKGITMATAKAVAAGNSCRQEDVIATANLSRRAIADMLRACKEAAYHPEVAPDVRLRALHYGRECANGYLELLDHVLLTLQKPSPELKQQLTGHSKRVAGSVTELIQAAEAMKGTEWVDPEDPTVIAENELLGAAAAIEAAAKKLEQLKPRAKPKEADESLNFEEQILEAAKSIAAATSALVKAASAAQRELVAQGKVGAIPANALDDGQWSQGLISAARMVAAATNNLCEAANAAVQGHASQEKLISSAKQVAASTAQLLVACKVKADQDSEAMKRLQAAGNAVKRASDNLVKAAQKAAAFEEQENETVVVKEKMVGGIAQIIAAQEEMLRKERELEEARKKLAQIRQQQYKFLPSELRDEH

Inhibitory activity | SMILES
no inhibition | COc1ccc(CSC[C@H](NC(=O)[C@H](CC(N)=O)NC(=O)[C@H](CCSC)NC(=O)[C@H](CCCCN)NC(=O)[C@H](CCC(=O)O)NC(=O)[C@H](CCCCN)NC(=O)[C@H](CCC(=O)O)NC(=O)[C@H](Cc2ccccc2)NC(=O)[C@@H](N)CCCCN)C(=O)N[C@@H](CCCCN)C(=O)N[C@@H](Cc2c[nH]c3ccccc23)C(=O)N[C@@H](CCSC)C(=O)N[C@H](C(=O)O)[C@@H](C)O)cc1 [FIYM42] (H-KFEKEKMNC(Mob)KWMT-OH)
no inhibition | CSCC[C@H](NC(=O)[C@H](CCCCN)NC(=O)[C@H](CCC(=O)O)NC(=O)[C@H](CCCCN)NC(=O)[C@H](CCC(=O)O)NC(=O)[C@H](Cc1ccccc1)NC(=O)[C@H](CCCCN)NC(=O)[C@@H]1CCCN1)C(=O)N[C@@H](CC(N)=O)C(=O)N[C@@H](CS)C(=O)N[C@@H](CCCCN)C(=O)N[C@@H](Cc1c[nH]c2ccccc12)C(=O)N[C@@H](CCSC)C(=O)N[C@H](C(=O)O)[C@@H](C)O [FIYM54] (H-PKFEKEKMNCKWMT-OH)
no inhibition | CSCC[C@H](NC(=O)[C@H](CC(N)=O)NC(=O)[C@@H](N)CCC(=O)O)C(=O)N[C@@H](CCCCN)C(=O)N[C@@H](CCC(=O)O)C(=O)N[C@@H](CCCCN)C(=O)N[C@@H](CCCCN)C(=O)N[C@@H](CC(=O)O)C(=O)N[C@@H](Cc1c[nH]c2ccccc12)C(=O)N[C@@H](C)C(=O)N[C@@H](CCCCN)C(=O)N[C@@H](Cc1ccccc1)C(=O)N[C@H](C(=O)O)[C@@H](C)O [FIYM3] (H-ENMKEKKDWAKFT-OH)
no inhibition | CSCC[C@H](NC(=O)[C@H](CCCCN)NC(=O)[C@H](CCC(=O)O)NC(=O)[C@H](CCCNC(=N)N)NC(=O)[C@H](CCC(=O)O)NC(=O)[C@H](Cc1ccccc1)NC(=O)[C@@H](N)CCCNC(=N)N)C(=O)N[C@@H](CC(N)=O)C(=O)N[C@@H](CS)C(=O)N[C@@H](CCCNC(=N)N)C(=O)N[C@@H](Cc1c[nH]c2ccccc12)C(=O)N[C@@H](CCSC)C(=O)N[C@H](C(=O)O)[C@@H](C)O [FIYM16] (H-RFEREKMNCRWMT-OH)
no inhibition | CC[C@H](C)[C@H](NC(=O)[C@@H]1CCCN1C(=O)[C@H](CC(N)=O)NC(=O)[C@H](CCC(=O)O)NC(=O)[C@H](CCC(N)=O)NC(=O)[C@@H](NC(=O)[C@@H](NC(=O)[C@H](CCCNC(=N)N)NC(=O)[C@H](Cc1c[nH]c2ccccc12)NC(=O)[C@H](CCCCN)NC(=O)[C@H](CS)NC(=O)[C@H](CC(N)=O)NC(=O)[C@H](CCSC)NC(=O)[C@H](CCCCN)NC(=O)[C@H](CCC(=O)O)NC(=O)[C@H](CCCCN)NC(=O)[C@H](CCC(=O)O)NC(=O)[C@H](Cc1ccccc1)NC(=O)[C@@H](N)CCCCN)C(C)C)[C@@H](C)O)C(=O)N[C@@H](Cc1ccc(O)cc1)C(=O)N[C@@H](CCCCN)C(=O)O [FIYM56] (H-KFEKEKMNCKWRVTQENPIYK-OH)
no inhibition | CC[C@H](C)[C@H](NC(=O)[C@@H]1CCCN1C(=O)[C@H](CC(N)=O)NC(=O)[C@H](CCC(=O)O)NC(=O)CNC(=O)[C@@H](NC(=O)[C@H](CC(=O)O)NC(=O)[C@H](Cc1c[nH]c2ccccc12)NC(=O)[C@H](CCCCN)NC(=O)[C@H](C)NC(=O)[C@H](CC(N)=O)NC(=O)[C@H](CCSC)NC(=O)[C@H](CCCCN)NC(=O)[C@H](CCC(=O)O)NC(=O)[C@H](CCCCN)NC(=O)[C@H](CCC(=O)O)NC(=O)[C@H](Cc1ccccc1)NC(=O)[C@H](CCCCN)NC(=O)[C@H](C)NC(=O)[C@H](Cc1ccccc1)NC(=O)[C@@H](N)CCC(=O)O)[C@@H](C)O)C(=O)N[C@@H](Cc1ccc(O)cc1)C(=O)N[C@@H](CCCCN)C(=O)O [FIYM7] (H-EFAKFEKEKMNAKWDTGENPIYK-OH)
no inhibition | CSCC[C@H](NC(=O)[C@H](CCCCN)NC(=O)[C@H](CCC(=O)O)NC(=O)[C@H](CCCNC(=N)N)NC(=O)[C@H](CCC(=O)O)NC(=O)[C@H](Cc1ccccc1)NC(=O)[C@@H](N)CCCCN)C(=O)N[C@@H](CCSC)C(=O)N[C@@H](CS)C(=O)N[C@@H](CCCCN)C(=O)N[C@@H](Cc1c[nH]c2ccccc12)C(=O)N[C@@H](CCSC)C(=O)N[C@H](C(=O)O)[C@@H](C)O [FIYM32] (H-KFEREKMMCKWMT-OH)
